Laboratory results as given in patent publication US20070093520A1, “Method of treatment of diarrhea-predominant irritable bowel syndrome in a subject” (priority 2005, published 2007).

System: diarrhea-predominant IBS subjects
Format: in vivo, human
Details: TEAE incidence, 2 mg, Safety Population
Procedure: The study was performed in approximately 150 study centers. Approximately 1600 eligible subjects were to be given cilansetron 2 mg TID. At Visit 1, pre-treatment assessments were conducted. […] Subjects were to return to the study site one month later for Visit 3 (Day 31) for their first interim assessment. […] All subjects who discontinued from the study were to have the same post-study assessments required at Visit 7 performed at their early termination visit. […]
Stool specimens were analyzed at every visit for occult blood. An independent GERB had been established to provide advice on GI AEs during the course of the study.
Adverse events were assessed at Baseline, at each clinic visit, and at the end of the study (Month 12 or the early termination visit). All AEs, which occurred during the study were followed up in accordance with good medical practice until resolved or judged no longer clinically significant, or if a condition was chronic, until fully characterized. Adverse events could occur in the specified follow-up period and, regardless of the interval since the last administration of the study medication, were treated in the same manner as an AE which occurred during the treatment with study medication. Each AE was evaluated for duration, severity, seriousness, and causal relationship to the investigational drug. The action taken and the outcome were also recorded.
Specifically, subjects who were lost to follow-up and had no post-Baseline contact with the site were excluded from the Safety population. The subjects who discontinued from the study due to lost to follow-up were identified based on the information collected on the study termination CRF page.
After the pretreatment assessment at Visit 1 (Days […] to −3), subjects were to return to the study site for a Baseline assessment and start the treatment at Visit 2 (Day 1).
For the by time-interval analyses of disposition, prevalence of AEs, and of markedly abnormal and predefined changes in laboratory values, vital signs, and ECGs, the following interval windows were used:
Adverse events that were already present prior to the first dose of cilansetron study medication but increased in severity afterwards were considered as treatment-emergent.
The 5% cutoff point was based on the incidence within higher level terms.
Subjects were counted at most once for each primary system organ class and preferred term. Serious AEs that resolved prior to receiving study medication or occurred more than 30 days after the last dose of study medication were not included in the incidence tables. A listing of all SAEs is presented; SAEs with onset prior to receiving study medication or more than 30 days after discontinuation of study medication were flagged. The listing presents lower level term and preferred term of the SAE, severity, action taken, outcome, and relationship of the SAE, start and stop date of the SAE, study day of onset of the SAE, age, race, and sex.

SMILES: Cc1nccn1C[C@H]1CCc2c(c3cccc4c3n2CCC4)C1=O [cilansetron, (R)-(−)-4,5,6,8,9,10-hexahydro-10-[(2-methyl-1H-imidazol-1-yl)methyl]-11H-pyrido-[3,2,1-jk]-carbazol-11-one]
- Neurosis NOS (PT): 5 (<1%) n (%)
- Nightmare (PT): 2 (<1%) n (%)
- Nocturia (PT): 1 (<1%) n (%)
- Oedema Peripheral (PT): 1 (<1%) n (%)
- Oligomenorrhoea NOS* (PT): 2 (<1%) n (%)
- Onychoschizia (PT): 1 (<1%) n (%)
- Osteoarthritis Aggravated (PT): 1 (<1%) n (%)
- Osteochondrosis (PT): 1 (<1%) n (%)
- Osteoporosis NOS (PT): 4 (<1%) n (%)
- Ovarian Cyst* (PT): 2 (<1%) n (%)
- Overweight (PT): 1 (<1%) n (%)
- Pain NOS (PT): 5 (<1%) n (%)
- Pain in Limb (PT): 11 (<1%) n (%)
- Palpitations (PT): 5 (<1%) n (%)
- Panic Disorder NOS (PT): 4 (<1%) n (%)
- Peripheral Swelling (PT): 3 (<1%) n (%)
- Pharyngitis (PT): 27 (2%) n (%)
- Pharyngolaryngeal Pain (PT): 2 (<1%) n (%)
- Photodermatosis (PT): 1 (<1%) n (%)
- Polyarthritis (PT): 1 (<1%) n (%)
- Polymenorrhoea* (PT): 1 (<1%) n (%)
- Polymyalgia (PT): 1 (<1%) n (%)
- Polyuria (PT): 2 (<1%) n (%)
- Post Procedural Haemorrhage (PT): 1 (<1%) n (%)
- Post Procedural Pain (PT): 4 (<1%) n (%)
- Postmenopausal Haemorrhage* (PT): 1 (<1%) n (%)
- Postmenopausal Symptoms* (PT): 1 (<1%) n (%)
- Productive Cough (PT): 1 (<1%) n (%)
- Prostatic Pain* (PT): 1 (<1%) n (%)
- Prostatitis* (PT): 3 (<1%) n (%)
- Proteinuria (PT): 2 (<1%) n (%)
- Pruritus Generalised (PT): 2 (<1%) n (%)
- Pruritus NOS (PT): 11 (<1%) n (%)
- Psoriasis (PT): 5 (<1%) n (%)
- Pyoderma (PT): 1 (<1%) n (%)
- Pyrexia (PT): 20 (1%) n (%)
- Radius Fracture (PT): 2 (<1%) n (%)
- Rash Generalised (PT): 3 (<1%) n (%)
- Rash NOS (PT): 10 (<1%) n (%)
- Rash Papular (PT): 1 (<1%) n (%)
- Rash Pruritic (PT): 1 (<1%) n (%)
- Renal Colic (PT): 4 (<1%) n (%)
- Renal Cyst NOS (PT): 1 (<1%) n (%)
- Respiratory Disorder NOS (PT): 1 (<1%) n (%)
- Restlessness (PT): 1 (<1%) n (%)
- Rheumatoid Arthritis (PT): 1 (<1%) n (%)
- Rheumatoid Arthritis Aggravated (PT): 1 (<1%) n (%)
- Rhinitis Allergic NOS (PT): 4 (<1%) n (%)
- Rhinitis NOS (PT): 4 (<1%) n (%)
- Rhinorrhoea (PT): 2 (<1%) n (%)
- Rib Fracture (PT): 2 (<1%) n (%)
- Road Traffic Accident (PT): 1 (<1%) n (%)
- Rosacea (PT): 1 (<1%) n (%)
- Scar (PT): 1 (<1%) n (%)
- Scleroderma (PT): 1 (<1%) n (%)
- Seborrhoea (PT): 1 (<1%) n (%)
- Sensation of Foreign Body NOS (PT): 1 (<1%) n (%)
- Sinus Arrhythmia (PT): 2 (<1%) n (%)
- Sinus Bradycardia (PT): 3 (<1%) n (%)
- Sinus Congestion (PT): 1 (<1%) n (%)
- Sinus Tachycardia (PT): 9 (<1%) n (%)
- Skin Disorder NOS (PT): 1 (<1%) n (%)
- Skin Eruption (PT): 1 (<1%) n (%)
- Skin Inflammation NOS (PT): 1 (<1%) n (%)
- Skin Necrosis (PT): 1 (<1%) n (%)
- Skin Odour Abnormal (PT): 1 (<1%) n (%)
- Skin Ulcer (PT): 1 (<1%) n (%)
- Sleep Disorder NOS (PT): 2 (<1%) n (%)
- Sneezing (PT): 2 (<1%) n (%)
- Snoring (PT): 1 (<1%) n (%)
- Soft Tissue Injury NOS (PT): 1 (<1%) n (%)
- Solar Keratosis (PT): 1 (<1%) n (%)
- Spinal Osteoarthritis (PT): 1 (<1%) n (%)
- Spondylosis (PT): 2 (<1%) n (%)
- Sputum Discoloured (PT): 1 (<1%) n (%)
- Stress Incontinence (PT): 2 (<1%) n (%)
- Stress Symptoms (PT): 8 (<1%) n (%)
- Supraventricular Extrasystoles (PT): 1 (<1%) n (%)
- Sweating Increased (PT): 7 (<1%) n (%)
- Tachycardia NOS (PT): 3 (<1%) n (%)
- Tachycardia Paroxysmal NOS (PT): 1 (<1%) n (%)
- Tendon Injury (PT): 1 (<1%) n (%)
- Tendonitis (PT): 3 (<1%) n (%)
- Thermal Burn (PT): 1 (<1%) n (%)
- Thirst (PT): 1 (<1%) n (%)
- Toe Deformities NOS (PT): 1 (<1%) n (%)
- Tonsillar Hypertrophy (PT): 1 (<1%) n (%)
- Traumatic Chest Injury NOS (PT): 1 (<1%) n (%)
- Upper Respiratory Tract Inflammation (PT): 1 (<1%) n (%)
- Urethral Stricture (PT): 1 (<1%) n (%)
- Urinary Frequency (PT): 5 (<1%) n (%)
- Urinary Incontinence (PT): 4 (<1%) n (%)
- Urinary Incontinence Aggravated (PT): 1 (<1%) n (%)
- Urine Odour Abnormal (PT): 1 (<1%) n (%)
- Urticaria NOS (PT): 4 (<1%) n (%)
- Uterine Cervical Erosion* (PT): 1 (<1%) n (%)
- Uterine Prolapse* (PT): 1 (<1%) n (%)
- Vaginal Prolapse* (PT): 1 (<1%) n (%)
- Ventricular Extrasystoles (PT): 3 (<1%) n (%)
- Ventricular Hypertrophy (PT): 1 (<1%) n (%)
- Vitamin B12 Deficiency (PT): 2 (<1%) n (%)
- Weakness (PT): 14 (<1%) n (%)
- Weight Fluctuation (PT): 1 (<1%) n (%)
- Wheezing (PT): 1 (<1%) n (%)
- Wrist Fracture (PT): 2 (<1%) n (%)
- Cardiac Disorders (SOC): 46 (3%) n (%)
- General Disorders and Administration Site Conditions (SOC): 85 (6%) n (%)
- Injury, Poisoning and Procedural Complications (SOC): 59 (4%) n (%)
- Metabolism and Nutrition Disorders (SOC): 54 (4%) n (%)
- Psychiatric Disorders (SOC): 74 (5%) n (%)
- Renal and Urinary Disorders (SOC): 40 (3%) n (%)
- Reproductive System and Breast Disorders (SOC): 38 (3%) n (%)
- Respiratory, Thoracic and Mediastinal Disorders (SOC): 91 (6%) n (%)
- Skin and Subcutaneous Tissue Disorders (SOC): 70 (5%) n (%)
